The record followed here is PMC6225253, “Chemical Constituents and Antidepressant-Like Effects in Ovariectomized Mice of the Ethanol Extract of Alternanthera philoxeroides” (Molecules : A Journal of Synthetic Chemistry and Natural …, 2018).

One series deals with T1, recombinant human MAO-B (Homo sapiens, UniProt P27338).
T1 construct: purchased Sigma-Aldrich
T1 sequence (P27338 1-520): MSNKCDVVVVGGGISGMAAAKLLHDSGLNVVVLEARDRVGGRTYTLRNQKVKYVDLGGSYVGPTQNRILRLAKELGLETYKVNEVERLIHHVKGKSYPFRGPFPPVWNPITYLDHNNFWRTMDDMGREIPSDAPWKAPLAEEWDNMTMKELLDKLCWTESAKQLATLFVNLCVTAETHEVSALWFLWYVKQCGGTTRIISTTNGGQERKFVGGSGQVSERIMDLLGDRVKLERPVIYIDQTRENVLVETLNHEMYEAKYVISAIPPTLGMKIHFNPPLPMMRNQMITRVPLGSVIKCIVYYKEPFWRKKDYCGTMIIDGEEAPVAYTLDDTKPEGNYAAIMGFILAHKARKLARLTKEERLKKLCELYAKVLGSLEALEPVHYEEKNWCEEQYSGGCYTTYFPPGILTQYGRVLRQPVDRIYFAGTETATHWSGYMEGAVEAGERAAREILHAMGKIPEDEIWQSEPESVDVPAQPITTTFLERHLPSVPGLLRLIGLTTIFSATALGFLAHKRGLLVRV
As to the kind of experiment: Human MAO-B inhibitory assay (kynuramine, fluorescence of 4-hydroxyquinoline). It is filed as biochemical. The settings on record: for Ki: from IC50 by Cheng–Prusoff, Km 22.7 μM; for Si MAO-B (selectivity index between MAO-A and MAO-B): ratio of Ki values; for Isoform selectivity from the selectivity index, MAO-B: based on Si; for IC50: recombinant human MAO-B, kynuramine, pH 7.4, 37 °C, 20 min, mean ± SD. How it is done:
(§1) The crude ethanol extract of A. philoxeroides, together with its constituents, alternanthin (1a), althernanthin B (1b), torosaflavone E (3a), dimethyltorosaflavone D (3b) and chrysoeriol 7-rhamnoside (5) were tested for their inhibitory activity on MAO-A and MAO-B, using the recombinant human MAO-A and MAO-B. The rates of MAO catalysis was determined by measuring the production of 4-hydroxyquinoline by fluorescence spectrophotometry. […] For this purpose, Km values for the oxidation of kynuramine by MAO-A and MAO-B were used from previous studies, i.e., 16.1 μM for human MAO-A and 22.7 μM for human MAO-B [15].
(§2) The MAOs inhibitory activity assay of the A. philoxeroides extract and some of its flavonoid constituents, using recombinant human MAO-A and MAO-B (Sigma-Aldrich, St. Louis, MO, USA) as enzyme sources, was performed according to the method described by Manley-King et al.. Briefly, the crude extract 100 mg was dissolved in 400 µL DMSO to prepare 250 mg/mL as a stock solution. Serial dilution of test samples (20 µL) for each concentration was used to test the activity. For 1a, 1b, 3a, 3b and 5, a stock solution of 1000 μM in DMSO was prepared and a serial dilution of the test sample (20 μL) of each concentration was used to test the activity. Concentration of MAOs was 0.0075 mg/mL for MAO-A inhibitor test, 9 µL of kynuramine (Sigma-Aldrich, St. Louis, MO, USA) was mixed with 469.5 µL of potassium phosphate buffer (pH 7.4). For MAO-B inhibitor test, 6 µL of kynuramine was mixed with 472.5 µL of potassium phosphate buffer (pH 7.4). Then 1.5 µL of the enzymes were added before incubation at 37 °C for 20 min. The reaction was stopped by adding 400 µL of 2N NaOH and 1000 µL of water. Measurement of 4-hydroxyquinoline (Sigma-Aldrich, St. Louis, MO, USA) was carried out by fluorescence spectrophotometry with the excitation wavelength at 310 nm and the emission wavelength at 400 nm. […] Data were analyzed by Prism 5 software package (GraphPad Software, version 5, San Diego, CA, USA). The IC50 values were converted to the corresponding Ki values according to the equation Ki = IC50/(1+[S]/Km).

In the next series the target is T2, recombinant human MAO-A (Homo sapiens, UniProt P21397).
T2 construct: purchased Sigma-Aldrich
T2 sequence (P21397 1-527): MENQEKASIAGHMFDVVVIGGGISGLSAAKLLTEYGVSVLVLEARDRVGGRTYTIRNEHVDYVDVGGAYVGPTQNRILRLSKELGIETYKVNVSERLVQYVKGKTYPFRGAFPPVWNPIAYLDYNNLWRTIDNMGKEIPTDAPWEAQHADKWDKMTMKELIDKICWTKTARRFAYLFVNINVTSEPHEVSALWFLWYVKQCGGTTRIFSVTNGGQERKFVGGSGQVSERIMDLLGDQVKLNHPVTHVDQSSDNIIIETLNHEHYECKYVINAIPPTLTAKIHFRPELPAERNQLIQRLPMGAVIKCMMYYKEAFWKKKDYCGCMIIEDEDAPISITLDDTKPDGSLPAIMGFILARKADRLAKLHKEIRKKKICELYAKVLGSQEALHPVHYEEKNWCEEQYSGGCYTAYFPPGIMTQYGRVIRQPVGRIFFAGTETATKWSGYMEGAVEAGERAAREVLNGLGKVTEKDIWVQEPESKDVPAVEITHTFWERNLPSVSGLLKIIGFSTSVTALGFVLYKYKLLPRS
As to the kind of experiment: Human MAO-A inhibitory assay (kynuramine, fluorescence of 4-hydroxyquinoline). It is filed as biochemical. Conditions: for Ki: from IC50 by Cheng–Prusoff, Km 16.1 μM; for Si MAO-A (selectivity index between MAO-A and MAO-B): ratio of Ki values; for IC50: recombinant human MAO-A, kynuramine, pH 7.4, 37 °C, 20 min, mean ± SD. The procedure:
as §1, §2

`COc1cc(-c2cc(=O)c3c(O)c([C@H]4C[C@H](O)[C@@H](O)[C@@H](C)O4)c(O)cc3o2)ccc1O` [Compound 1a, altheranthin]: at recombinant human MAO-B, the Ki stood at 0.26 nM; the “Si MAO-B (selectivity index between MAO-A and MAO-B)” value is 2.1364. For the same compound, the “Isoform selectivity from the selectivity index, MAO-A” value at recombinant human MAO-A (based on Si) is “partially selective for MAO-A isoform”. In addition, on recombinant human MAO-A, the inhibition constant (Ki) is 0.12 nM; the “Si MAO-A (selectivity index between MAO-A and MAO-B)” value came to 0.4681.

For `C[C@H]1O[C@@H](c2c(O)cc3oc(-c4ccc(O)c(O)c4)cc(=O)c3c2O)C[C@H](O)[C@H]1O` [Compound 1b, alternanthin B], on recombinant human MAO-B, the “Isoform selectivity from the selectivity index, MAO-B” value is reported as “partially selective for MAO-B isoform”; the inhibitory constant (Ki) turned out to be 0.1 nM; the “Si MAO-B (selectivity index between MAO-A and MAO-B)” value came to 0.1764. Also, at recombinant human MAO-A, the Ki worked out at 0.54 nM; the “Si MAO-A (selectivity index between MAO-A and MAO-B)” value came to 5.6681; the IC50 worked out at 0.00206 µM.

`COc1cc(-c2cc(=O)c3c(O)c(/C=C/C(=O)O)c(O)cc3o2)ccc1O` [Compound 3a, torosaflavone E] registered a melting point of 250 to 252 °C. Further, on recombinant human MAO-B, the “Isoform selectivity from the selectivity index, MAO-B” value is listed as “partially selective for MAO-B isoform”; the Ki was determined as 290 nM; the “Si MAO-B (selectivity index between MAO-A and MAO-B)” value is listed as 0.0601; the IC50 came to 675 ± 460 nM. Further, on recombinant human MAO-A, the Ki was determined as 4840 nM; the “Si MAO-A (selectivity index between MAO-A and MAO-B)” value was found to be 16.6534; the IC50 is 18.4 ± 1.47 µM.

Regarding `O=C(O)/C=C/c1c(O)cc2oc(-c3ccc(O)c(O)c3)cc(=O)c2c1O` [Compound 3b, demethyltorosaflavone D], at recombinant human MAO-B, the “Isoform selectivity from the selectivity index, MAO-B” value was “partially selective for MAO-B isoform”; the Ki came out at 55.7 nM; the “Si MAO-B (selectivity index between MAO-A and MAO-B)” value is 0.4193; the IC50 worked out at 129 nM. On recombinant human MAO-A, the Ki was 133 nM; the “Si MAO-A (selectivity index between MAO-A and MAO-B)” value is reported as 2.3850.

For the compound `COc1cc(-c2cc(=O)c3c(O)cc(O[C@@H]4O[C@@H](C)[C@H](O)[C@@H](O)[C@H]4O)cc3o2)ccc1O` [Compound 5, chrysoeriol 7-O-rhamnoside], at recombinant human MAO-B, the “Isoform selectivity from the selectivity index, MAO-B” value is reported as “partially selective for MAO-B isoform”; the Ki came to 234 nM; the “Si MAO-B (selectivity index between MAO-A and MAO-B)” value turned out to be 0.2915; the IC50 was 544 ± 330 nM. Moreover, at recombinant human MAO-A, the Ki came to 804 nM; the “Si MAO-A (selectivity index between MAO-A and MAO-B)” value is 3.4303; the half-inhibitory concentration (IC50) is 3.05 ± 0.35 µM.
